Test results taken from patent US20240254111A1, “SUBSTITUTED BENZAMIDES AS HERBICIDES” (SYNGENTA CROP PROTECTION AG, priority 2021, published 2024).

How the values were obtained:
Format in all cases: in vivo
[1] = tested on: Oryza sativa (ORYSA, Rice); assay: Glasshouse herbicide test, Table B1 (crop damage); settings: POST Application, evaluated after 14 days
[2] = tested on: Euphorbia heterophylla (EPHHIL); assay: Glasshouse herbicide test, Table B1; settings: POST Application, evaluated after 14 days
Sinapis arvensis (SINAR) = assay: Glasshouse herbicide test, Table B1; settings: POST Application, evaluated after 14 days
[3] = tested on: Panicum miliaceum (PANMVI); assay: Glasshouse herbicide test, Table B1; settings: POST Application, evaluated after 14 days
[4] = tested on: Amaranthus retoflexus (AMARE); assay: Glasshouse pre-/post-emergence herbicide test, Table B2; settings: 130 g/h, evaluated after 13 days
Procedure: (§1) Seeds of a variety of test species are sown in standard soil in pots Amaranthus retoflexus (AMARE), Setaria faberi (SETFA), Echinochloa crus-galli (ECHCG), Ipomoea hederacea (IPOHE)). After cultivation for one day (pre-emergence) or after 8 days cultivation (post-emergence) under controlled conditions in a glasshouse (at 24/16° C., day/night; 14 hours light; 65% humidity), the plants are sprayed with an aqueous spray solution derived from the formulation of the technical active ingredient in acetone/water (50:50) solution containing 0.5% Tween 20 (polyoxyethelyene sorbitan monolaurate, CAS RN 9005-64-5). Compounds are applied at 130 g/h unless otherwise indicated. The test plants are then grown in a glasshouse under controlled conditions in a glasshouse (at 24/16° C., day/night; 14 hours light; 65% humidity) and watered twice daily. After 13 days for pre and post-emergence, the test is evaluated for the percentage damage caused to the plant. The biological activities are shown in the following table on a five-point scale (5=80-100%; 4=60-79%; 3=40-59%; 2=20-39%; 1=0-19%).

[5] = tested on: Echinochloa crus-galli (ECHCG); assay: as above; settings: 130 g/h, evaluated after 13 days
Procedure: as §1

[6] = tested on: Ipomoea hederacea (IPOHE); assay: as above; settings: 130 g/h, evaluated after 13 days
Procedure: as §1

Setaria faberi (SETFA) = assay: as above; settings: 130 g/h, evaluated after 13 days
Procedure: as §1

| Structure (SMILES) | ORYSA damage to plant (100=total damage; 0=no damage) ([1]; rate 30 g/ha) | ORYSA damage to plant (100=total damage; 0=no damage) ([1]; rate 130 g/ha) | ORYSA damage to plant (100=total damage; 0=no damage) ([1]; rate 250 g/ha) | EPHHL damage to plant (100=total damage; 0=no damage) ([2]; rate 30 g/ha) | EPHHL damage to plant (100=total damage; 0=no damage) ([2]; rate 130 g/ha) | EPHHL damage to plant (100=total damage; 0=no damage) ([2]; rate 250 g/ha) | SINAR damage to plant (100=total damage; 0=no damage) (Sinapis arvensis (SINAR); rate 30 g/ha) | SINAR damage to plant (100=total damage; 0=no damage) (Sinapis arvensis (SINAR); rate 130 g/ha) | SINAR damage to plant (100=total damage; 0=no damage) (Sinapis arvensis (SINAR); rate 250 g/ha) | PANMI damage to plant (100=total damage; 0=no damage) ([3]; rate 30 g/ha) | PANMI damage to plant (100=total damage; 0=no damage) ([3]; rate 130 g/ha) | PANMI damage to plant (100=total damage; 0=no damage) ([3]; rate 250 g/ha) | AMARE percentage damage, five-point scale ([4]; POST Application) | AMARE percentage damage, five-point scale ([4]; PRE Application) | ECHCG percentage damage, five-point scale ([5]; POST Application) | ECHCG percentage damage, five-point scale ([5]; PRE Application) | IPOHE percentage damage, five-point scale ([6]; POST Application) | IPOHE percentage damage, five-point scale ([6]; PRE Application) | SETFA percentage damage, five-point scale (Setaria faberi (SETFA); POST Application) | SETFA percentage damage, five-point scale (Setaria faberi (SETFA); PRE Application) |
| --- | --- | --- | --- | --- | --- | --- | --- | --- | --- | --- | --- | --- | --- | --- | --- | --- | --- | --- | --- | --- |
| Cn1nnnc1NC(=O)c1ccc(OC(F)(F)F)c(NC(=O)C2CCOCC2)c1Cl [Compound 1.001, N-[2-chloro-3-[(1-methyltetrazol-5-yl)carbamoyl]-6-(trifluoromethoxy)phenyl]-tetrahydropyran-4-carboxamide] | 0 | 0 | 0 | 100 | 100 | 100 | 100 | 100 | 100 | 90 | 100 | 100 | 5 (5=80-100%) | 5 (5=80-100%) | 5 (5=80-100%) | 5 (5=80-100%) | 5 (5=80-100%) | 4 (4=60-79%) | 5 (5=80-100%) | 5 (5=80-100%) |
| Cn1nnnc1NC(=O)c1ccc(OC(F)F)c(NC(=O)C2CCOCC2)c1Cl [Compound 1.002, N-[2-chloro-6-(difluoromethoxy)-3-[(1-methyltetrazol-5-yl)carbamoyl]phenyl]tetrahydropyran-4-carboxamide] | 0 | 10 | 20 | 90 | 100 | 100 | 90 | 100 | 100 | 90 | 100 | 100 | 5 (5=80-100%) | 5 (5=80-100%) | 5 (5=80-100%) | 5 (5=80-100%) | 4 (4=60-79%) | 5 (5=80-100%) | 5 (5=80-100%) | 5 (5=80-100%) |
| Cn1nnnc1NC(=O)c1ccc(OC(F)(F)F)c(NC(=O)C2(C)CCOCC2)c1Cl [Compound 1.007] | – | – | – | – | – | – | – | – | – | – | – | – | 5 (5=80-100%) | 5 (5=80-100%) | 5 (5=80-100%) | 2 (2=20-39%) | – | 3 (3=40-59%) | 5 (5=80-100%) | 1 (1=0-19%) |
| Cn1nnnc1NC(=O)c1ccc(OC(F)F)c(NC(=O)C2(C)CCOCC2)c1Cl [Compound 1.009] | – | – | – | – | – | – | – | – | – | – | – | – | 5 (5=80-100%) | 5 (5=80-100%) | 4 (4=60-79%) | 1 (1=0-19%) | 4 (4=60-79%) | 2 (2=20-39%) | 2 (2=20-39%) | 1 (1=0-19%) |
| Cc1c(C(=O)Nc2nnnn2C)ccc(OC(F)(F)F)c1NC(=O)C1CCOCC1 [Compound 1.010] | – | – | – | – | – | – | – | – | – | – | – | – | 4 (4=60-79%) | 5 (5=80-100%) | 5 (5=80-100%) | 3 (3=40-59%) | 4 (4=60-79%) | 2 (2=20-39%) | 5 (5=80-100%) | 2 (2=20-39%) |
| CCn1nnnc1NC(=O)c1ccc(OC(F)(F)F)c(NC(=O)C2CCOCC2)c1Cl [Compound 1.011] | – | – | – | – | – | – | – | – | – | – | – | – | 5 (5=80-100%) | 5 (5=80-100%) | 5 (5=80-100%) | 5 (5=80-100%) | 5 (5=80-100%) | 5 (5=80-100%) | 5 (5=80-100%) | 5 (5=80-100%) |
| CCn1nnnc1NC(=O)c1ccc(OC(F)F)c(NC(=O)C2CCOCC2)c1Cl [Compound 1.012] | – | – | – | – | – | – | – | – | – | – | – | – | 5 (5=80-100%) | 4 (4=60-79%) | 5 (5=80-100%) | 5 (5=80-100%) | 4 (4=60-79%) | 4 (4=60-79%) | 5 (5=80-100%) | 3 (3=40-59%) |
